Test results as given in article PMC4242082, “Mechanistic determinants of the directionality and energetics of active export by a heterodimeric ABC transporter” (Nature Communications, 2014).
Substitutions are numbered along the chain they refer to. Like-named read-outs stand apart in the source and are kept apart here.

Assays:
[1] = biological target: T1, TAP (TAP1/TAP2 complex; wt TAP) (Homo sapiens, UniProt Q03518+Q03519); test: biochemical; set-up: species or system Sf9; ATP-agarose competition binding assay with TAP-containing Sf9 membranes; settings: read-out: ATP binding IC50
T1 construct: full-length heterodimer from Sf9 insect cells (baculovirus), purified and reconstituted in proteoliposomes, or in membranes
T1 sequence (Q03518 1-748): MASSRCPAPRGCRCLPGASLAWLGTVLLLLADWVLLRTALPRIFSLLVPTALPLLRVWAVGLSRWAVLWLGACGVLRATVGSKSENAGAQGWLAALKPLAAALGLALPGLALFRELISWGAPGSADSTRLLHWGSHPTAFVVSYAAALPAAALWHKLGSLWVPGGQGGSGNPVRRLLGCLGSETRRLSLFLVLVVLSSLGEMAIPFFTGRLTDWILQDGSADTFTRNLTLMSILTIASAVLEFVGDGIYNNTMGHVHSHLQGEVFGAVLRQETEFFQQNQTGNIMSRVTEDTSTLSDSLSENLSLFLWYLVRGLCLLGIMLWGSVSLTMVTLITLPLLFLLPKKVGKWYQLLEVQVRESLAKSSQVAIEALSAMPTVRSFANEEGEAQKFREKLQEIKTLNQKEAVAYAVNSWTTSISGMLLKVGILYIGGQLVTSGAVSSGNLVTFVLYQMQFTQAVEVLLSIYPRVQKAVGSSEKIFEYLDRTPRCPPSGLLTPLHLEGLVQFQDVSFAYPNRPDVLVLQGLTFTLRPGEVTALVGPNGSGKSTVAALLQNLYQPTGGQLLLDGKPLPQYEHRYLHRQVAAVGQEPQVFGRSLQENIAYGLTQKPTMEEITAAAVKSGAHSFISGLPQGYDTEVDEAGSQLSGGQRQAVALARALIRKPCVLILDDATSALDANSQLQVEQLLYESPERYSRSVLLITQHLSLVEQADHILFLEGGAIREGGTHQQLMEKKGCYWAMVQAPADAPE
T1 sequence (Q03519 1-686): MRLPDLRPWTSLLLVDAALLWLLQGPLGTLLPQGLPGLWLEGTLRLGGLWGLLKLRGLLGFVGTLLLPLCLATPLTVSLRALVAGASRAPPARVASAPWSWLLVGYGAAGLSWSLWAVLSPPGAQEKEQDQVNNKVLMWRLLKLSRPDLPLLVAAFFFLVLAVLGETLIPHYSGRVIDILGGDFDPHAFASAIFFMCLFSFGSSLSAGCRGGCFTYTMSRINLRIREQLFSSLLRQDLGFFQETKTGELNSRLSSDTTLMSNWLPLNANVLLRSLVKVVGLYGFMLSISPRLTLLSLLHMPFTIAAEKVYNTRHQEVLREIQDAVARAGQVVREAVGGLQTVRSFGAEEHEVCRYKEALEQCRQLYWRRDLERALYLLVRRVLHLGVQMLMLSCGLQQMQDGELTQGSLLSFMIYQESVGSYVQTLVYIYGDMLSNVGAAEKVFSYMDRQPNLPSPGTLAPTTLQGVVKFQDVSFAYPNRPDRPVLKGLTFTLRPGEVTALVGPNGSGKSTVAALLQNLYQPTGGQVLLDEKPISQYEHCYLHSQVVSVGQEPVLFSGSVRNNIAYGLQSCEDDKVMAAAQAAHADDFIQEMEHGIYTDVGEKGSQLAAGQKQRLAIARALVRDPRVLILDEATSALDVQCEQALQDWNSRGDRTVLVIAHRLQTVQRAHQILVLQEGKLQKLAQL

[2] = biological target: T2, rat TAP1-NBD (Rattus norvegicus, UniProt P36370, D645N/D651A); test: X-ray crystal structure, […] Å; format: binding; settings: crystals pH 8.0; canonical NBD dimer with two ATP
T2 construct: monomer-homodimer equilibrium
T2 sequence (P36370 465-725 D645N/D651A): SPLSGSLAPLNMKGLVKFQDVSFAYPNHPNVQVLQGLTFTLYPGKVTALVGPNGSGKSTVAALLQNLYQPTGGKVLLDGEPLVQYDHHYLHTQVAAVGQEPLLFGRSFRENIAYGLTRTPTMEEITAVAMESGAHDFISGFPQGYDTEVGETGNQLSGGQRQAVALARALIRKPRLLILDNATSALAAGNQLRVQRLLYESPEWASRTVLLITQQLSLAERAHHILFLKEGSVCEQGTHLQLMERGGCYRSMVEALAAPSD

[3] = biological target: T3, rat TAP1-NBD (Rattus norvegicus, UniProt P36370); test: biochemical; set-up: fluorescence polarization competition of unlabelled nucleotide against 1 uM ATP-Bodipy, TAP1-NBD
T3 construct: monomer-homodimer equilibrium
T3 sequence (P36370 465-725): T2 sequence (P36370 465-725 D645N/D651A) with N181D, A187D
Procedure: Nucleotide-stripped TAP1-NBD samples were re-concentrated to ~100 μM, and used to make a series of eight twofold dilutions in assay buffer (20 mM Tris, pH 8.0, 50 mM NaCl, 1 mM dithiothreitol) with 1 μM ATP-Bodipy (Invitrogen). A background control contained no protein. For competitive binding experiments, NBDs (25 μM final) were mixed with 1 μM ATP-Bodipy and a series of ten twofold dilutions of unlabelled nucleotide, with samples with no labelled nucleotide serving as background control. Fluorescence polarization was measured in FlexStation 3 with excitation at 488 nm. All samples were run two or three times in triplicates. Data were analysed with Origin (OriginLab Corp.). Binding affinities of unlabelled nucleotides (Kis) were obtained using Ki=IC50/([L]/Kd+1). To explore the molecular mechanism of antigen translocation, wt TAP and the D674A/wt complex were purified and functionally reconstituted in proteoliposomes. […] Furthermore, the Michaelis–Menten kinetics for peptide transport by wt TAP and D674A/wt are equal (Fig. 2c, Supplementary Fig. 2c and Supplementary Table 3), confirming that the affinity for ATP and peptides is not affected by the D-loop substitution.

[4] = biological target: T3, rat TAP1-NBD; test: fluorescence polarization competition with ATP-Bodipy; format: binding
Excerpt: (§1) fluorescence polarization competition with ATP-Bodipy on rat TAP1-NBD | affinities for ATP and ADP of isolated wt and D-loop (D651A) mutant rat TAP1-NBD

[5] = biological target: T4, rat TAP1-NBD (Rattus norvegicus, UniProt P36370, D651A); test: as above; format: binding
T4 construct: monomer-homodimer equilibrium
T4 sequence (P36370 465-725 D651A): T2 sequence (P36370 465-725 D645N/D651A) with N181D
Excerpt: as §1

[6] = biological target: T1, TAP (TAP1/TAP2 complex; wt TAP); test: ATP binding affinity; settings: type of constant not stated in main text
[7] = biological target: T3, rat TAP1-NBD; test: fluorescence polarization, direct titration; format: binding; settings: pH 8.0, 20 mM Tris, 50 mM NaCl, 1 mM dithiothreitol; labelled compound
Excerpt: fluorescence polarization, direct titration on rat TAP1-NBD | series of eight twofold dilutions in assay buffer

[8] = biological target: T5, TAP with tapasin-TAP2 fusion (Tsn-TAP) (Homo sapiens, UniProt Q03518+Q03519); test: competition with 8-azido-[α-32P]ATP photo-crosslinking; format: binding; settings: 200-fold excess, 1 mM MgCl2, pH 7.4, 4 °C
T5 construct: gene TAP1; purified heterodimer from Sf9 cells in digitonin; TAP2 fused N-terminally to tapasin (TAPBP) only to separate the subunits on the gel
T5 sequence (Q03518 1-748): T1 sequence (Q03518 1-748)
T5 sequence (Q03519 1-686): T1 sequence (Q03519 1-686)
T5 sequence (O15533 21-448 partner): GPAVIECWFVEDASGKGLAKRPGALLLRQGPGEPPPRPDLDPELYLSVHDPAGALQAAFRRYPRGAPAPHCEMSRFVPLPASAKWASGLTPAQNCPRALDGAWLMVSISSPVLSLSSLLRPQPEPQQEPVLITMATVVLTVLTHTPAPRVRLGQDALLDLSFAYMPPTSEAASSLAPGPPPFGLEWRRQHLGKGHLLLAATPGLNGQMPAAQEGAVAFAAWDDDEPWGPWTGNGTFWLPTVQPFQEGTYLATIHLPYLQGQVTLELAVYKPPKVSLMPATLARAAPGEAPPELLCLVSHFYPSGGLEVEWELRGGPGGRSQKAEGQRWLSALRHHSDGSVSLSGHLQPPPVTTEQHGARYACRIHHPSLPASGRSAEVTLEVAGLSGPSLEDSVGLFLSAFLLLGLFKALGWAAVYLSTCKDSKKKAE

Molecule	IC50 [1]	X-ray crystal structure, 2.65 Å [2]	IC50 ([3]; read-out: IC50 (µM) ATP)	Ki [4]	Ki [5]	affinity [6]	Kd [7]	IC50 ([3]; read-out: IC50 (µM) ADP)	competition with 8-azido-[α-32P]ATP photo-crosslinking [8]
Nc1ncnc2c1ncn2[C@@H]1O[C@H](COP(=O)(O)OP(=O)(O)OP(=O)(O)O)[C@@H](O)[C@H]1O [ATP]	10 ± 1 µM	the two ATPs and their binding sites are essentially unaffected by this structural re-organization	139 ± 30 µM	119 ± 13 µM	148 ± 9 µM	all mutants displayed similar affinity for peptides and ATP as compared with wt TAP			
ATP-Bodipy							6.1 ± 1.7 µM		
Nc1ncnc2c1ncn2[C@@H]1O[C@H](COP(=O)(O)OP(=O)(O)O)[C@@H](O)[C@H]1O [ADP]				59 ± 2 µM	59 ± 3 µM			69 ± 14 µM	wt and D674A/wt TAP showed the same binding properties for ATP, ADP (Fig. 2b)
